For 21 compounds, inhibition, Activity and IC50 results are on record in ChEMBL document CHEMBL4130544, “Bioactive Asarone-Derived Phenylpropanoids from the Rhizome of Acorus tatarinowii Schott” (J Nat Prod, 2017).

Assay [1] deals with Acetylcholinesterase (Homo sapiens) (UniProt P22303). In words: Inhibition of AChE (unknown origin) at 100 uM using acetylthiocholine iodide as substrate measured after 30 mins by Ellman's method.
The target of assay [2] is T1, Alpha glucosidase (Homo sapiens, UniProt O43451+P10253+P14410+Q2M2H8). As to the kind of experiment: Inhibition of alpha-glucosidase (unknown origin) at 400 uM using p-NPG as substrate pretreated for 10 mins followed by substrate addition measured after 5 mins. Format: protein assay.
Assay [3] is described as follows: Antioxidant activity assessed as AAPH radical scavenging activity at 12.5 uM by ORAC-FL assay. Type of assay: functional.
A short description of assay [4]: Antioxidant activity assessed as DPPH radical scavenging activity at 100 uM incubated for 30 mins under dark condition. Format: functional.
The target in assay [5] is T1, Alpha glucosidase. As to the kind of experiment: Inhibition of alpha-glucosidase (unknown origin) using p-NPG as substrate pretreated for 10 mins followed by substrate addition measured after 5 mins. Format: protein assay.

Active and inactive are the calls of the source. The calls are words filed in the database; no cut-off is given here.

Sequence of Acetylcholinesterase (Homo sapiens) (P22303 whole entry): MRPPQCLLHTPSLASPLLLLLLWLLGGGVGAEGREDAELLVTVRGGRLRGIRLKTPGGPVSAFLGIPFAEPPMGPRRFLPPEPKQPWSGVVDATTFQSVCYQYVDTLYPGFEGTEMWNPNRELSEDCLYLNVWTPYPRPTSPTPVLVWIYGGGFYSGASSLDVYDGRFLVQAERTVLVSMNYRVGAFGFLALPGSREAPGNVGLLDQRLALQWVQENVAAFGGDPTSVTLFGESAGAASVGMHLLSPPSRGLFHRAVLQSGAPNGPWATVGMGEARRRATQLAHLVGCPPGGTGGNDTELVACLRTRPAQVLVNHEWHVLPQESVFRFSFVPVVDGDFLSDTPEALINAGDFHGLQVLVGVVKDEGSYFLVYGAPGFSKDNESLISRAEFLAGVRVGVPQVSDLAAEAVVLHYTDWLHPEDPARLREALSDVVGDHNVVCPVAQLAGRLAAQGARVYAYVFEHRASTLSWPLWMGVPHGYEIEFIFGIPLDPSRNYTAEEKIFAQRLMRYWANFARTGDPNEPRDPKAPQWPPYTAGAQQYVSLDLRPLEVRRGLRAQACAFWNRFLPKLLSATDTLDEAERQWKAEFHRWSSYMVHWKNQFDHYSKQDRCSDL

For the compound `CCO[C@@H](c1cc(OC)c(OC)cc1OC)[C@H](C)O`, the inhibition entry (in assay [1]; on Alpha glucosidase [2]) was “Active” in each case.

As for `O=C(O[C@@H]1Cc2c(O)cc(O)cc2O[C@@H]1c1cc(O)c(O)c(O)c1)c1cc(O)c(O)c(O)c1`, the Activity in assay [3] was 1.97 µMequiv/µM.

With `COc1ccc(CCCO)cc1OC`, the inhibition result (in assay [1]; at Alpha glucosidase [2]) was “Active” each time.

As to `COc1cc([C@H]2Oc3c(OC)cc(CCCO)cc3[C@@H]2CO[C@@H]2O[C@H](CO)[C@@H](O)[C@H](O)[C@H]2O)ccc1O`, the inhibition result (in assay [1]; on Alpha glucosidase [2]) was “Active” in each case. The outcome in assay [3] and in assay [4] was Active.

Consider `COc1cc(OC)c([C@H](OC)[C@H](C)O)cc1OC`, for which the inhibition entry (in assay [1]; on Alpha glucosidase [2]) was “Active” each time.

For `COc1cc(OC)c([C@@H](OC)[C@@H](C)O)cc1OC`, the inhibition entry (in assay [1]; at Alpha glucosidase [2]) was “Active” in each case.

With `CCO[C@H](c1cc(OC)c(OC)cc1OC)[C@H](C)O`, the inhibition entry (in assay [1]; at Alpha glucosidase [2]) was “Active” each time.

With `CCO[C@@H](c1cc(OC)c(OC)cc1OC)[C@@H](C)O`, the inhibition result (in assay [1]; on Alpha glucosidase [2]) was “Active” in each case.

For `COc1cc(OC)c([C@H](C)C(OC)OC)cc1OC`, the inhibition entry (in assay [1]; at Alpha glucosidase [2]) was “Active” in each case.

In the case of `COc1cc([C@H]2OC[C@H]3[C@@H]2CO[C@@H]3c2ccc(O)c(OC)c2)ccc1O` (racemic), the inhibition entry (in assay [1]; on Alpha glucosidase [2]) was “Active” each time. For the same compound, the result in assay [3] and in assay [4] was Active.

Regarding `COc1cc(OC)c([C@H](O)[C@@H](C)O)cc1OC` (relative stereo), the inhibition entry (in assay [1]; at Alpha glucosidase [2]) was “Active” in each case.

Regarding `COc1cc(OC)c([C@H](OC)[C@@H](C)O)cc1OC`, the inhibition result in assay [1] is “Active”. For the same compound, the inhibition result on Alpha glucosidase [2] is “inactive”.

Turning to `COc1cc(OC)c([C@@H](OC)[C@H](C)O)cc1OC`, the inhibition entry (in assay [1]; on Alpha glucosidase [2]) was “Active” throughout. Further, the IC50 at Alpha glucosidase [5] came to 80.6 µM.

For the compound `CCO[C@H](c1cc(OC)c(OC)cc1OC)[C@@H](C)O`, the inhibition result (in assay [1]; on Alpha glucosidase [2]) was “Active” throughout.

`COc1cc(OC)c([C@@H](O)[C@@H](C)O)cc1OC` (relative stereo): the inhibition entry (in assay [1]; on Alpha glucosidase [2]) was “Active” throughout.

For `COc1cc(OC)c([C@@H](C)C(OC)OC)cc1OC`, the inhibition result (in assay [1]; at Alpha glucosidase [2]) was “Active” throughout.

For the compound `COc1cc(OC)c([C@@H]2[C@@H](C)[C@H](c3cc(OC)c(OC)cc3OC)O[C@@H]2C)cc1OC` (racemic), the inhibition result (in assay [1]; on Alpha glucosidase [2]) was “Active” in each case.

Take `COc1cc(OC)c(C(O)C(C)=O)cc1OC` (stereo not drawn): the inhibition entry (in assay [1]; on Alpha glucosidase [2]) was “Active” each time.

With `COc1cc([C@H]2Oc3c(OC)cc(CCCO[C@@H]4O[C@H](CO)[C@@H](O)[C@H](O)[C@H]4O)cc3[C@@H]2CO)ccc1O`, the inhibition result (in assay [1]; on Alpha glucosidase [2]) was “Active” each time. The Activity in assay [3] is 3.17 µMequiv/µM. Moreover, the outcome in assay [4] was Active.

With `COc1cc(OC)c(C(C)=O)cc1OC`, the inhibition entry (in assay [1]; at Alpha glucosidase [2]) was “Active” throughout.

Turning to `COc1cc(OC)c(OC)cc1C=O`, the inhibition result (in assay [1]; at Alpha glucosidase [2]) was “Active” each time.
